# In doi:10.64898/2025.12.11.693838v1 (biorxiv, 2025):
# Molecular target: T1, SaTpx (WT-SaTpx) (Staphylococcus aureus, UniProt Q2FXL3)
# T1 sequence (Q2FXL3 1-164): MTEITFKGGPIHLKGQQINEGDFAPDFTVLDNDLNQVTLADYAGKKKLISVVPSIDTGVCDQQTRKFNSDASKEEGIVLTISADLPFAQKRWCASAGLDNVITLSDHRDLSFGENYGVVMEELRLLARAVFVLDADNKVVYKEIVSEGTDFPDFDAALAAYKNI
# Test: coupled SaTrx1/SaTR NADPH oxidation assay at […] nm, Michaelis-Menten fit
# Assay type: biochemical
# Conditions: apparent; NADPH 0.2 mM; 20 mM Tris, 50 mM NaCl, pH 8.0
smiles,measurement,value
CC(C)(OO)c1ccccc1 [cumene hydroperoxide],Km,8.5 µM
